The source of these data is patent US7179460B2, “Bacterial composition and its use” (priority 2002, dated 2007).

The assay relates to Bifidobacterium lactis PTA-4802. In words: Antibiotic sensitivity profile (NCCLS M11-A5 agar dilution MIC). The note with it: MRS + cysteine agar; sensitivity of strain PTA-4802 to the antibiotic. The class given is cell-based. On the technique in general: Agar dilution tests growth on a series of plates holding different concentrations.
In the case of Polymyxin B, the “Antibiotic Sensitivity (S/I/R)” value was “R (MIC >64 ug/ml = Resistant (R))”.
Take `CC1(C)S[C@@H]2[C@H](NC(=O)Cc3ccccc3)C(=O)N2[C@H]1C(=O)O` [Penicillin G]: the “Antibiotic Sensitivity (S/I/R)” value is on record as “S (MIC <4 ug/ml = Sensitive (S))”.
The value for Neomycin was “R (MIC >64 ug/ml = Resistant (R))”; that for Gentamicin was “R (MIC >64 ug/ml = Resistant (R))”.
